Source: patent publication US6869950B1, “Benzimidazole derivatives” (Fujisawa Pharmaceutical Co., Ltd., priority 1998, dated 2005)

System: db/db mice
Assay: Activity of decreasing blood sugar using db/db mice
Type: in vivo
Settings: female db/db mice, 1 mg/kg, compound mixed with powdered chow, 14 days; difference between db/db and +/+ mouse defined as 100%
Source text: <Activity of Decreasing Blood Sugar Using db/db Mice>
• 1-(2-Chloro-4-(n-pentyloxy)benzyl)-2-methyl-6-((4-methylbenzene)sulfonylcarbamoyl)benzimidazole—Compound(15) • 6-((N-1-butylaminosulfonyl)carbamoyl)-1-(2-chloro-4-phenylbenzyl)-2-methylbenzimidazole—Compound(76) Animal Used
Five-week-old female mice [C57BL/KsJ-dbm db+/db+, C57BL/KsJ-dbm +m/+m (Jackson Laboratory)] were purchased, and were kept for 2 to 3 weeks. Then, these mice were used in the test.
A test compound was mixed with a powdered chow (CE-2, made by Nippon Clea) using a mortar. The mixing ratio was 0.01%. The mixed chow was changed twice a week for each group. The feed amount and the remaining amount were recorded, and the intake was calculated from the difference therebetween.
The female db/db mice were grouped according to the body weight, the plasma glucose, and the plasma triglyceride concentrations. Then, the mixture containing the test compound was administered to the mice for 14 days (from 8 to 10 weeks old). In the morning on day 7 and day 14, blood was collected from the orbital venous plexus using heparinized glass capillary tubes (Chase Heparinized Capillary Tubes), and a plasma fraction was obtained through centrifugal separation. Plasma glucose, triglyceride, and insulin concentrations were measured on day 0 and day 14. Plasma glucose and triglyceride concentrations were measured on day 7. The body weight was measured on day 0, day 7, and day 14. After the final collection of the blood, the mice were killed using CO2 gas.
The plasma glucose was measured by a glucose oxidase method (Glucose CII-Test Wako made by Wako Pure Chemical Industries, Ltd.) using from 10 to 15 μl of plasma. The plasma triglyceride concentration was measured by a GPO-p-chlorophenol method (Triglyceride G-Test Wako made by Wako Pure Chemical Industries, Ltd.) or a GPO-DAOS method (Triglyceride E-Test Wako) using from 10 to 15 μl of plasma. The above-mentioned measurements were conducted immediately after the blood collection. The plasma insulin concentration was measured by radioimmunoassay method (Phadesef Insulin RIA Kit made by Cabi Pharmacia) using 20 μl of plasma (which can be stored at −20° C.).
The difference in the plasma glucose and the plasma triglyceride concentrations between the db/db mouse and the +/+ mouse was defined as 100%, and the rate (%) of decrease in the plasma glucose and the plasma triglyceride concentrations of the group to which the test compound was administered was calculated. […]

In order of falling “rate of decrease in the plasma glucose” value:
1. CCCCCOc1ccc(Cn2c(C)nc3ccc(C(=O)NS(=O)(=O)c4ccc(C)cc4)cc32)c(Cl)c1 [Compound (15), 1-(2-chloro-4-(n-pentyloxy)benzyl)-2-methyl-6-((4-methylbenzene)sulfonylcarbamoyl)benzimidazole]  79%
2. CCCCNS(=O)(=O)NC(=O)c1ccc2nc(C)n(Cc3ccc(-c4ccccc4)cc3Cl)c2c1 [Compound (76), 6-((N-1-butylaminosulfonyl)carbamoyl)-1-(2-chloro-4-phenylbenzyl)-2-methylbenzimidazole]  71%

In order of falling “rate of decrease in the plasma triglyceride” value:
1. CCCCNS(=O)(=O)NC(=O)c1ccc2nc(C)n(Cc3ccc(-c4ccccc4)cc3Cl)c2c1 [Compound (76), 6-((N-1-butylaminosulfonyl)carbamoyl)-1-(2-chloro-4-phenylbenzyl)-2-methylbenzimidazole]  98%
2. CCCCCOc1ccc(Cn2c(C)nc3ccc(C(=O)NS(=O)(=O)c4ccc(C)cc4)cc32)c(Cl)c1 [Compound (15), 1-(2-chloro-4-(n-pentyloxy)benzyl)-2-methyl-6-((4-methylbenzene)sulfonylcarbamoyl)benzimidazole]  69%

System: not given
Assay: not given
Settings: not given

First: CCCNS(=O)(=O)NC(=O)c1ccc2nc(C)n(Cc3ccc(-c4ccco4)cc3Cl)c2c1 [Compound (92), 1-(2-chloro-4-(2-furyl)benzyl)-2-methyl-6-((N-1-propylaminosulfonyl)carbamoyl)benzimidazole]
Second: CCNS(=O)(=O)NC(=O)c1ccc2nc(C)n(Cc3ccc(-c4ccco4)cc3Cl)c2c1 [Compound (91), 1-(2-chloro-4-(2-furyl)benzyl)-6-((N-ethylaminosulfonyl)carbamoyl)-2-methylbenzimidazole]
The melting point of the first is lower: 177.8 to 180.2 °C for the first, 190.5 to 192.2 °C for the second.

First: CCCCCOc1ccc(Cn2c(C)nc3ccc(C(=O)NS(=O)(=O)NCCC)cc32)c(Cl)c1 [Compound (89), 1-(2-chloro-4-(pentyloxy)benzyl)-2-methyl-6-((N-1-propylaminosulfonyl)carbamoyl)benzimidazole]
Second: CCCNS(=O)(=O)NC(=O)c1ccc2nc(C)n(Cc3ccc(OCC)cc3Cl)c2c1 [Compound (86), 1-(2-chloro-4-(ethyloxy)benzyl)-2-methyl-6-((N-1-propylaminosulfonyl)carbamoyl)benzimidazole]
The melting point of the first is higher: 176.4 to 179.1 °C for the first, 175.3 to 176.2 °C for the second.

First: CCCNS(=O)(=O)NC(=O)c1ccc2nc(C)n(Cc3ccc(C(F)(F)F)cc3Cl)c2c1 [Compound (74), 1-(2-chloro-4-(trifluoromethyl)benzyl)-2-methyl-6-((N-1-propylaminosulfonyl)carbamoyl)benzimidazole]
Second: CCCCC#Cc1ccc(Cn2c(C)nc3ccc(C(=O)NS(=O)(=O)CCCCC)cc32)c(Cl)c1 [Compound (44), 1-(2-chloro-4-(1-hexyn-1-yl)benzyl)-2-methyl-6-(1-pentanesulfonylcarbamoyl)benzimidazole]
The melting point of the first is higher: 202 to 203 °C for the first, 190 to 191 °C for the second.

With `CCCCCS(=O)(=O)NC(=O)c1ccc2nc(C)n(Cc3ccc(N4CCOCC4)cc3Cl)c2c1` [Compound (71), 1-(2-chloro-4-morpholinobenzyl)-2-methyl-6-(1-pentanesulfonylcarbamoyl)benzimidazole] the melting point was 205 to 207 °C.
